# Values quoted from earlier work in patent US20150313913A1, “POSITIVE ALLOSTERIC MODULATORS OF THE GABA-A RECEPTOR IN THE TREATMENT OF AUTISM” (UNIVERSITY OF WASHINGTON THROUGH ITS CENTER FOR …, priority 2013, published 2015).
# Tested on: GABA-A receptor
# Details: Table 1, exemplary benzodiazepines; cited from earlier work
row,Compound,Effect at GABA-A receptor
1,COCC1CN=C(c2ccccc2Cl)c2cc(Br)ccc2N1C (centres unmarked) [Metaclazepam],Agonist
2,[O-][N+]1=C(c2ccccc2)c2cc(Cl)ccc2N=C(NCC2CC2)C1 [Cyprazepam],Agonist
3,CCOC(=O)N1CCC(=O)N(c2ccccc2)c2cc(Cl)ccc21 [Arfendazam],Partial agonist
4,CCn1nc(C)c2c1C(c1ccccc1)=NCC(=O)N2 [Ripazepam],Agonist
5,O=C1COC(N2CCN=C(c3ccccc3Cl)c3cc(Cl)ccc32)=N1 [Reclazepam],Agonist
6,Clc1ccc2c(n1)C(c1ccccc1Cl)=NCc1nncn1-2 [Zapizolam],Agonist
7,O=C1CCNc2ccc(Cl)cc2N1c1ccccc1 [Lofendazam],Agonist
8,CC(C)(C)C(=O)OC1N=C(c2ccccc2)c2cc(Cl)ccc2NC1=O (centres unmarked) [Pivoxazepam],Agonist
9,NNC(=O)CN1C(=O)CN=C(c2ccccc2)c2cc(Br)ccc21 [Gidazepam],Agonist (Prodrug)
10,C=CCONC1=Nc2ccc(Cl)cc2C(c2ccccc2Cl)=NC1 [Uldazepam],Agonist
11,Cc1nn(C)c2c1C(c1ccccc1F)=NCC(=O)N2C [Zolazepam],Agonist
12,CCS(=O)(=O)CCN1C(=O)CN=C(c2ccccc2F)c2cc(Cl)ccc21 [Elfazepam],Agonist
13,CN1C(=O)CN2CCc3ccccc3C2c2cc(Cl)ccc21 (centres unmarked) [Clazolam],Agonist
14,CCCN(CCC)Cc1nc(-c2ncn3c2CN(C)C(=O)c2cc(F)ccc2-3)no1 [Ro48-6791],Agonist
15,C#Cc1ccc2c(c1)C(c1ccccc1F)=N[C@H](C)c1c(C(=O)OCC)ncn1-2 [SH-053-R-CH3-2′F],Agonist
16,O=C1Nc2ccc(Cl)nc2C(c2ccccc2Cl)=NC1O (centres unmarked) [Lopirazepam],Agonist Short- acting
17,O=C1C(O)N=C(c2ccccc2F)c2cc(Cl)ccc2N1CCO (centres unmarked) [Doxefazepam],Agonist
18,CC1COC2(c3ccccc3Cl)c3cc(Cl)ccc3NC(=O)CN12 (centres unmarked) [Mexazolam],Agonist
19,O=C1CN=C(c2ccccc2)c2cc(Cl)ccc2N1CCOCC1CC1 [Iclazepam],Agonist
20,Cc1nn(C)c2c1N(c1ccccc1)C(=O)CC(=O)N2C [Zomebazam],Agonist
21,Fc1ccccc1C1=NCCN(CC(F)(F)F)c2ccc(Cl)cc21 [Fletazepam],Agonist

row,Compound,Effect at GABA-A receptor
1,NC(=O)c1ncn2c1CN=C(c1ccccc1Br)c1cc(F)ccc1-2 [Imidazenil],Partial agonist
2,COc1cc2c(cc1OC)C(c1ccc(N)cc1)=NN=C(C)C2 [Nerisopam],Agonist
3,CN(C)Cc1nnc2n1-c1ccc(Cl)cc1C(c1ccccc1)=NC2 [Adinazolam],Full agonist
4,O=C1CN=C(c2ccccc2F)c2cc(Cl)ccc2N1CC(O)CO (centres unmarked) [Proflazepam],Agonist
5,Clc1ccccc1C1=NCc2nnc(C3CCCCC3)n2-c2sc(Br)cc21 [Ciclotizolam],Partial Agonist Low efficacy
6,C[C@@H]1N=C(c2ccccc2Cl)c2cc([N+](=O)[O-])ccc2NC1=O [Meclonazepam],Agonist
7,O=C1CN2CCOC2(c2ccccc2F)c2cc(Br)ccc2N1 (centres unmarked) [Haloxazolam],Agonist
8,CCOC(=O)C1N=C(c2ccccc2F)c2cc(Cl)ccc2N(C(=O)NC)C1=O (centres unmarked) [Ethyl carfluzepate],Agonist
9,CN1C(=S)CN=C(c2ccccc2)c2cc(Cl)ccc21 [Sulazepam],Agonist
10,O=C(O)C1N=C(c2ccccc2)c2cc([N+](=O)[O-])ccc2NC1=O (centres unmarked) [Nitrazepate],Agonist
11,CC1CN2CC(=O)Nc3ccc(Cl)cc3C2(c2ccccc2)O1 (centres unmarked) [Oxazolam],Agonist
12,CN1C(=O)CN=C(c2ccccc2F)c2cc(Cl)ccc21 [Fludiazepam],Agonist
13,COC(=O)CC[C@@H]1N=C(c2ccccn2)c2cc(Br)ccc2-n2c(C)cnc21 [Remimazolam],Agonist
14,Cc1ncc2n1-c1ccc(Cl)cc1C(c1ccccc1Cl)=NC2 [Climazolam],Agonist
15,CN1C(=O)C(O)N=C(c2ccccc2F)c2cc(Cl)ccc21 (centres unmarked) [Flutemazepam],Agonist
16,CN1C(=O)CN=C(C2=CCCCC2)c2cc([N+](=O)[O-])ccc21 [Menitrazepam],Agonist
17,CCOC(=O)C1N=C(c2ccccc2Cl)c2cc(Cl)ccc2NC1=O (centres unmarked) [Ethyl dirazepate],Agonist
18,COc1cc2c(cc1OC)C(c1cccc(Cl)c1)=NN=C(C)C2 [Girisopam],Agonist
19,CN1C(=O)CC(=O)N(c2ccccc2)c2cc(C(F)(F)F)ccc21 [Triflubazam],Agonist
20,O=C1CN2CCOC2(c2ccccc2F)c2cc(Cl)ccc2N1CCO (centres unmarked) [Flutazolam],Agonist

# Same assay, conditions: Table 2, exemplary SS-PAMs; cited from earlier work
row,Compound,Effect at GABA receptor
1,Clc1ccc2c(c1)C1=NCCN1c1c(-c3noc(C4CC4)n3)ncn1-2 [U-90042],"Agonist at α1,3,6 subunits"
2,"CC#CCOC(=O)c1c(C)nc2sc3c(c2c1N)CCC(O)C3 (centres unmarked) [SB-205,384]","Agonist α3,5,6 subtype selective"
3,CCCN(CCC)C(=O)Cc1c(-c2ccc(Cl)cc2)nc2ccc(Cl)cn12 [Alpidem],Agonist α3 subtype selective
4,CC(C)(O)c1ccc2c(c1)ncn2-c1cccc(-c2ccccc2C#N)c1 [NS-11394],"Agonist α3,5 subtype selective"
5,CCO/N=C(\C)c1ccc2c(c1)ncn2-c1cccc(-c2cccnc2)c1 [NS-2710],"Partial agonist α2,3 subtype selective"
6,CC(C)CCC(=O)CC1c2ccccc2C(=O)N1c1ccc2ccc(Cl)nc2n1 (centres unmarked) [Pagoclone],"Partial agonist α2,3 selective"
7,Cn1ncnc1COc1nn2c(-c3ccccc3)nnc2cc1C1CCC1 [TP-13],"Partial agonist at α2,3 subunits"
8,"CCn1ncnc1COc1nn2c(-c3ccccc3F)nnc2cc1C(C)(C)C [TPA-023, 7-(1,1-dimethylethyl)-6-(2-ethyl-2H-1,2,4-triazol-3-ylmethoxy)-3-(2-fluorophenyl)-1,2,4-triazolo[4,3-b]pyridazine]","Partial agonist at α2,3 subunits Antagonist at α1,5 subunits"
9,CC(C)(O)c1ccn2c(-c3ccc(F)c(-c4ccc(F)cc4C#N)c3)cnc2c1F [TP-003],"Partial agonist α2,3,5 subtype selective binding and α3 selective efficacy"
10,Cc1cc2c(N3CCCC3)nc(N3CCCC3)nc2n1C [U-89843A],"Agonist at α1,3,6 subunits"
11,O=C1N=C(N2CCCCC2)CN1c1ccc(Cl)cc1 [ELB-139],Partial agonist Highest affinity for α3 subtype but highest efficacy at the α1 and α2 subunits
12,"Cn1c2ccc(F)cc2c2c(C(=O)N3CCCC3)cn(-c3ccccc3)c(=O)c21 [SL-651,498]","Full agonist α2,3 selective"
13,c1cc(-n2ccnc2)cc(-n2cnc3cc(-c4ccoc4)ccc32)c1 [NS-2664],"Partial agonist α2,3 subtype selective"
14,CCCc1c(Cn2ccnc2-c2ncccc2F)ncn2nc(C)nc12 [Adipiplon],Partial agonist α3 selective

# Same assay, conditions: Table 4, exemplary non-BDZ GABA-A enhancers; cited from earlier work
row,Compound,Effect at GABA receptor
1,COc1c(-c2ccc(N)cc2)nc2ccc(NCc3cccc(C)c3)nn12 [GBLD-345],Full agonist
2,CCc1ccc(-c2nc3ccc(C)cn3c2CN(C)C(=O)CC(C)C)cc1 [Necopidem],Agonist
3,O=C(c1ccccn1)c1cnn2c(-c3ccncc3)ccnc12 [Ocinaplon],Agonist
4,CCc1c(OC)nc2nc(C(=O)c3ccccc3)cn2c1C [Divaplon],Partial agonist
5,CCOCN1C2=C(C(=O)Nc3ccccc3F)C(=O)CCN2c2ccc(F)cc21 [RWJ-51204],Partial agonist
6,c1ccc(-c2cc(CCC3CCNCC3)c3ccccc3n2)cc1 [Pipequaline],Partial agonist
7,O=c1cc2c(nn1-c1ccc(Cl)cc1)-c1ccccc1[S+]([O-])CC2 (centres unmarked) [Y-23684],Partial agonist Non- selective
8,CCC(=O)N1CCN(C(=O)O[C@H]2C3SCCSC3C(=O)N2c2ccc3ccc(Cl)nc3n2)CC1 (some centres unmarked) [Suproclone],Agonist
9,COc1ccc(-n2[nH]c3c4c(ncc3c2=O)CCCCC4)cc1 [CGS-20625],Agonist
10,CC(C)n1c(=O)c2c(-c3noc(C4CC4)n3)ncn2c2ccccc21 [Panadiplon],Partial agonist
11,COc1nc2nc(-c3noc(C)n3)cn2c2c1CCCC2 [Taniplon],Agonist
12,CCc1c(OC)nc2nc(-c3noc(C)n3)cn2c1C [Fasiplon],Agonist
13,O=c1c2cnc3ccccc3c2[nH]n1-c1ccc(Cl)cc1 [CGS-9896],Agonist
14,O=c1nc2ccccc2c2nc(-c3ccccc3)[nH]n12 [CGS-13767],Agonist
15,Cc1ccc(S(=O)(=O)N2CCc3ccccc3[C@@H]2[C@@H]2CCC(=O)O2)cc1 [ROD-188],Agonist
16,COCc1c(C(=O)OC(C)C)ncc2[nH]c3ccc(OCc4ccccc4)cc3c12 [Abecarnil],Partial agonist
17,CN1CCN(C(=O)OC2C3=C(SCCS3)C(=O)N2c2ccc3ccc(Cl)nc3n2)CC1 (centres unmarked) [Suriclone],Agonist
18,O=c1c2cnc3ccccc3c2[nH]n1-c1ccccc1 [CGS-8216],Agonist
19,CC(=O)N(C)c1cc(-c2ccnc3c(C(=O)c4cccs4)cnn23)ccc1F [Lorediplon],Agonist
20,COCc1c(C(=O)OC(C)C)ncc2[nH]c3cccc(Cc4ccc(Cl)cc4)c3c12 [Gedocarnil],Agonist
21,CCOC(=O)c1ncc2[nH]c3ccc(OCc4ccccc4)cc3c2c1COC [ZK-93423],Agonist

# Tested on: not given
# Details: Table 4; cited from earlier work
row,Compound,"Dose in humans for anti-anxiety, anti-convulsive, or sedative effects"
1,CC(C)(C)C(O)/C=C/c1ccc2c(c1)OCO2 (centres unmarked) [Stiripentol],50-100 mg/kg/day (max daily dose 4 g)
